Drawing on ChEMBL document CHEMBL5291721, “A preclinical secondary pharmacology resource illuminates target-adverse drug reaction associations of marketed drugs” (Nat Commun, 2023), this text covers AC50 for 10 molecules.

Where a SMILES comes first, the peptide text is derived from it.

Some targets named below: Histamine H1 receptor (Homo sapiens, UniProt P35367); D(3) dopamine receptor (Homo sapiens, UniProt P35462); Histamine H3 receptor (Homo sapiens, UniProt Q9Y5N1).
In the next assay the target is Histamine H2 receptor (Homo sapiens, UniProt P25021). The assay is classed as functional, cell-based.
Chain of Histamine H2 receptor (P25021 whole entry): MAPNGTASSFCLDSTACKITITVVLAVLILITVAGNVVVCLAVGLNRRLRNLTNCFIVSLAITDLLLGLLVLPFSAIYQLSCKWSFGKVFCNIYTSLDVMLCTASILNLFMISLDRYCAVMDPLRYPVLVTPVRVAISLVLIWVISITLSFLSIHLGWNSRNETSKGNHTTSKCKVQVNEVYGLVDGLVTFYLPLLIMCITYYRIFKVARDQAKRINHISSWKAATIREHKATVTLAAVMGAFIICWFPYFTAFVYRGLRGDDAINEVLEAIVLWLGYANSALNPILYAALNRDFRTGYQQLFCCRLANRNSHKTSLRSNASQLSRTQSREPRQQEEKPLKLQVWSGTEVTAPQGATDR
Assay [1] concerns the target T1, 5-hydroxytryptamine receptor 2C (Homo sapiens, UniProt P28335).
T1 sequence (P28335 whole entry): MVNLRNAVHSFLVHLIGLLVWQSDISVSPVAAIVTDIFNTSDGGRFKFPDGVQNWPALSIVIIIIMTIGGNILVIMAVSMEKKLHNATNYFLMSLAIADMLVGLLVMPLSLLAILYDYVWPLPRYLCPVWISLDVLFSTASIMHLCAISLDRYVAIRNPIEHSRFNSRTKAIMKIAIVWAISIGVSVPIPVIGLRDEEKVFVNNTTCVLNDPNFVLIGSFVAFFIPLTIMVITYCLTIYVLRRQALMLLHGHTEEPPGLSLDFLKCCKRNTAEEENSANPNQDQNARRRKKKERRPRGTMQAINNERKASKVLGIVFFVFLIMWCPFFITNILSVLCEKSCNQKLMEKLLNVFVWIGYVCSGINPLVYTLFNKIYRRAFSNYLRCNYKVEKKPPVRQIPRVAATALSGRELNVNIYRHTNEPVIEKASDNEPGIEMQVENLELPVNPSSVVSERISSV

In another assay the target is T2, Glucocorticoid receptor (Homo sapiens, UniProt P04150).
T2 sequence (P04150 whole entry): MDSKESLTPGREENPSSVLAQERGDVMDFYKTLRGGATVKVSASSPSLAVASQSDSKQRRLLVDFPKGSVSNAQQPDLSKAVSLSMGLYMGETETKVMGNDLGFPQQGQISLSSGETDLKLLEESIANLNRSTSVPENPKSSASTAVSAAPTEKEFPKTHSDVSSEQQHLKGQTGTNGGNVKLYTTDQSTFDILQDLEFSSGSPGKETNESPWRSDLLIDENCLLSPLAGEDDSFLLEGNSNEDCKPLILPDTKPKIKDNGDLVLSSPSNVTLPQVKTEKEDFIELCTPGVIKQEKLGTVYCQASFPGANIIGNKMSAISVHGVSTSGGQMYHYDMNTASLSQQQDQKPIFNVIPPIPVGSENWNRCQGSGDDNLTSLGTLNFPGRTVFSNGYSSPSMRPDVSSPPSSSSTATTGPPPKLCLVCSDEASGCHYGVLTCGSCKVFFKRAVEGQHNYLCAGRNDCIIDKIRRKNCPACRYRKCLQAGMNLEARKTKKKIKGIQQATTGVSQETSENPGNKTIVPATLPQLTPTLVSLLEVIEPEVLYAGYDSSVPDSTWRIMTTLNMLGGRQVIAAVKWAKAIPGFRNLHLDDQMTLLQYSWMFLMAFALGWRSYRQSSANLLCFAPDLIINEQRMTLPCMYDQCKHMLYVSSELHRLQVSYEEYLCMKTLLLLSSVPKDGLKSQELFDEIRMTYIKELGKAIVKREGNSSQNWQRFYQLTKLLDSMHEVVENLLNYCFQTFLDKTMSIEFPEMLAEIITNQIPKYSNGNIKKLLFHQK

In assay [2] the target is Delta-type opioid receptor (Homo sapiens, UniProt P41143).
Chain of Delta-type opioid receptor (P41143 whole entry): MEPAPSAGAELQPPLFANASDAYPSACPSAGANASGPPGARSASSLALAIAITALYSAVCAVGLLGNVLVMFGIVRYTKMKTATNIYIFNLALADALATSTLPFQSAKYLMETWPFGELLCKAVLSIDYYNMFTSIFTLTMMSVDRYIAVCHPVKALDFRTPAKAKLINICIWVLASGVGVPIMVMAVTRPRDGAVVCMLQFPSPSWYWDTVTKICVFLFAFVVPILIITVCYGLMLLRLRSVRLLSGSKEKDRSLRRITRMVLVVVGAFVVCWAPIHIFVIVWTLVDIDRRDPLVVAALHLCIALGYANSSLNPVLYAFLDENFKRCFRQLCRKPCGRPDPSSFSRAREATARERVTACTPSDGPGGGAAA
The target in the next assay is T3, Progesterone receptor (Homo sapiens, UniProt P06401).
T3 sequence (P06401 whole entry): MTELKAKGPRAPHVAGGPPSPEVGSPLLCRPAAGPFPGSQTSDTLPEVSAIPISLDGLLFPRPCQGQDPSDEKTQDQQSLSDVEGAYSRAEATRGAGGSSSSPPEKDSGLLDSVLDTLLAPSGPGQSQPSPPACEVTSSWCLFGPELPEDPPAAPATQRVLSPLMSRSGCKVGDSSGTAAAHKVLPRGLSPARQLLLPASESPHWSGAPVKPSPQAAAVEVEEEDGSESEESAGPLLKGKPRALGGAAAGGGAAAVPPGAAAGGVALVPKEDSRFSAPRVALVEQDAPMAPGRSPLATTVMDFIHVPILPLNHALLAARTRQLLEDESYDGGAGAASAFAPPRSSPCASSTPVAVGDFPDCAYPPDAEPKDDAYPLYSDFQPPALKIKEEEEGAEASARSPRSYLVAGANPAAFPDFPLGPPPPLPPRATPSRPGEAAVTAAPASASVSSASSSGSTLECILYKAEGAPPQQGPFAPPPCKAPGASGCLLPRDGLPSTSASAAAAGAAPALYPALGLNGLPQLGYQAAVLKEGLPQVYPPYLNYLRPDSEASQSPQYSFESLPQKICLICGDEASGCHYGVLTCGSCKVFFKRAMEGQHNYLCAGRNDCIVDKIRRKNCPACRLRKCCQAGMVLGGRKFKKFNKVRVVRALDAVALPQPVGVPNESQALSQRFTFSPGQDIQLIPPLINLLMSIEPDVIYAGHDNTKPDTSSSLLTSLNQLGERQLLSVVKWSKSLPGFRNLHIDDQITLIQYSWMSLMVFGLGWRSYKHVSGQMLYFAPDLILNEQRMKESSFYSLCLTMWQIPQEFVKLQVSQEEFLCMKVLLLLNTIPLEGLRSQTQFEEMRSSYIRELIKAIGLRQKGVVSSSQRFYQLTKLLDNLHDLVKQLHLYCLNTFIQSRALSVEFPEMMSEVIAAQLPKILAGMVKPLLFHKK
In kind it is functional.

The next assay addresses T4, Thromboxane A2 receptor (Homo sapiens, UniProt P21731).
T4 sequence (P21731 whole entry): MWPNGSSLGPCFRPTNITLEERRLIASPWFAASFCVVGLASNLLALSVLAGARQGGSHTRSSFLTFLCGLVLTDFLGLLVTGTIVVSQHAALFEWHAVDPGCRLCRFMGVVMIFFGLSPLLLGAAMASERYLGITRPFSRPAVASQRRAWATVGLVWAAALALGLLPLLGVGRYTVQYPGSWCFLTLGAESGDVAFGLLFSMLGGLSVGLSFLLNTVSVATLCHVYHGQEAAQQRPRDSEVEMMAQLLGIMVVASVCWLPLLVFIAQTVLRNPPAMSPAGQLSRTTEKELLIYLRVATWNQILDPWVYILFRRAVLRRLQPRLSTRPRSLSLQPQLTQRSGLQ

In assay [3] the target is Sodium-dependent dopamine transporter (Homo sapiens, UniProt Q01959).
Chain of Sodium-dependent dopamine transporter (Q01959 whole entry): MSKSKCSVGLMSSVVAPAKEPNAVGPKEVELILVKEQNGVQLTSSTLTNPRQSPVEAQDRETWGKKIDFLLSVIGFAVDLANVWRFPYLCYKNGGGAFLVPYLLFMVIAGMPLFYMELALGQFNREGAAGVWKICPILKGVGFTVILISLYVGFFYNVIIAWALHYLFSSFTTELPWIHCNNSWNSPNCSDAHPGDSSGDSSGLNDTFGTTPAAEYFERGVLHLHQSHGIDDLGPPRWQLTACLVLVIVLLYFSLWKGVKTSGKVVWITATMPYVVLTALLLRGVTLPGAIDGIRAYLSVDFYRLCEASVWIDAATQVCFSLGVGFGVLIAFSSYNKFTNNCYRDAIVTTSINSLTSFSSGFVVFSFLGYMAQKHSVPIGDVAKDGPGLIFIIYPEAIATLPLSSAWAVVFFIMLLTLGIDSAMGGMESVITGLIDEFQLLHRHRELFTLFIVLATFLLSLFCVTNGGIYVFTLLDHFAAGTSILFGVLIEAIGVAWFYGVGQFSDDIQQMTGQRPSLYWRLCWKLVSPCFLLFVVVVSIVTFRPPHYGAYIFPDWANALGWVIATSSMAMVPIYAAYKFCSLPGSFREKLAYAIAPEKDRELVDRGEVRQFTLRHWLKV
Assay [4] concerns the target Sodium-dependent noradrenaline transporter (Homo sapiens, UniProt P23975).
Assay [5] has as its target Sodium-dependent serotonin transporter (Homo sapiens, UniProt P31645).
Note: assay procedure not described here.

Chain of Histamine H1 receptor (P35367 whole entry): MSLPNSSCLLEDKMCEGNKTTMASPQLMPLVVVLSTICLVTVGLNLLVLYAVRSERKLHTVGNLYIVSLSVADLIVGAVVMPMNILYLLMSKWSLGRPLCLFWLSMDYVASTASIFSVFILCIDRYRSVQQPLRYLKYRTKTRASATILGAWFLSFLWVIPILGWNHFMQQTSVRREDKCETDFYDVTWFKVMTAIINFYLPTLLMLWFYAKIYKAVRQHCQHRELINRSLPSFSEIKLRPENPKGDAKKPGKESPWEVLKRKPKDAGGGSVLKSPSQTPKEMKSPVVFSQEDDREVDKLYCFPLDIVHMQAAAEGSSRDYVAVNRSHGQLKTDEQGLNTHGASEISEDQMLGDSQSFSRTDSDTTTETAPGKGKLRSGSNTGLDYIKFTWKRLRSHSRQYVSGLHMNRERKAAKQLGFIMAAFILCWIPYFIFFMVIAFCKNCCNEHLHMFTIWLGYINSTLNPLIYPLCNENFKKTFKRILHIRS
Chain of Histamine H3 receptor (Q9Y5N1 whole entry): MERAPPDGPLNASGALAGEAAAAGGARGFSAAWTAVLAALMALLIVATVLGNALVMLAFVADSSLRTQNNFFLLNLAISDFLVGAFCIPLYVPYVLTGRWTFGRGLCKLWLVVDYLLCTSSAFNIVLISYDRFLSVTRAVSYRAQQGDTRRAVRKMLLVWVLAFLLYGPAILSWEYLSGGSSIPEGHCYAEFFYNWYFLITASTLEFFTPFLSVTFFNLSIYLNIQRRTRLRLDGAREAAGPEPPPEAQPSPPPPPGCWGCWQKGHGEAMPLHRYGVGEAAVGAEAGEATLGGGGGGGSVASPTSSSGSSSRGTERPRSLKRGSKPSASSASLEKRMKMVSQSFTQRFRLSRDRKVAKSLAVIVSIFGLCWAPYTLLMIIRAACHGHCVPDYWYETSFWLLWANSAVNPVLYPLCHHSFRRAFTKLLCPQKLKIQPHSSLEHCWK
Chain of D(3) dopamine receptor (P35462 whole entry): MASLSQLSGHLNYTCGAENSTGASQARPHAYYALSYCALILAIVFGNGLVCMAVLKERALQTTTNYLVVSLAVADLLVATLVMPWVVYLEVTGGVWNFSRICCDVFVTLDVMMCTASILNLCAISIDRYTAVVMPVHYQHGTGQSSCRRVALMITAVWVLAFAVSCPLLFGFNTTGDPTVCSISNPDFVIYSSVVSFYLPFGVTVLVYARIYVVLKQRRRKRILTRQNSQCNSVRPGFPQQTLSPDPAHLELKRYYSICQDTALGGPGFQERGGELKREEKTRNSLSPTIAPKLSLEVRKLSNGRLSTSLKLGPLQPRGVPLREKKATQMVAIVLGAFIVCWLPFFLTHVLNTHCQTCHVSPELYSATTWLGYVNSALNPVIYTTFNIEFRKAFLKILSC
Chain of Sodium-dependent noradrenaline transporter (P23975 whole entry): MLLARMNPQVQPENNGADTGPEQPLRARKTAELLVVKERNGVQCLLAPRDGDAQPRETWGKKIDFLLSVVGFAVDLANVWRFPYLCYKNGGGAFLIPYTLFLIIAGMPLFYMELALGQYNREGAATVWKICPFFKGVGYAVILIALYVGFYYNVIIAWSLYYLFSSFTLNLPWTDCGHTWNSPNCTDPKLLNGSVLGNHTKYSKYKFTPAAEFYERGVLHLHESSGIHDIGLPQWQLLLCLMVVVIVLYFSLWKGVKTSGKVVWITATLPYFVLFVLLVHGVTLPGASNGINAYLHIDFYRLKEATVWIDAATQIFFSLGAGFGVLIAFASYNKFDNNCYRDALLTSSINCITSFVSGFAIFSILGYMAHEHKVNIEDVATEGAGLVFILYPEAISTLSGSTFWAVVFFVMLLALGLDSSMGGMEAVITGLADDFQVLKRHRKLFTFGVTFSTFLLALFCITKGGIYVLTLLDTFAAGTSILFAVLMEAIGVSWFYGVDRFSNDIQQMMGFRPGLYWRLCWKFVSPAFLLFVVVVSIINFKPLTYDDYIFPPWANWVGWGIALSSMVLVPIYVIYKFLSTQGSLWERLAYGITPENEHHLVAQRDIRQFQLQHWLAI
Chain of Sodium-dependent serotonin transporter (P31645 whole entry): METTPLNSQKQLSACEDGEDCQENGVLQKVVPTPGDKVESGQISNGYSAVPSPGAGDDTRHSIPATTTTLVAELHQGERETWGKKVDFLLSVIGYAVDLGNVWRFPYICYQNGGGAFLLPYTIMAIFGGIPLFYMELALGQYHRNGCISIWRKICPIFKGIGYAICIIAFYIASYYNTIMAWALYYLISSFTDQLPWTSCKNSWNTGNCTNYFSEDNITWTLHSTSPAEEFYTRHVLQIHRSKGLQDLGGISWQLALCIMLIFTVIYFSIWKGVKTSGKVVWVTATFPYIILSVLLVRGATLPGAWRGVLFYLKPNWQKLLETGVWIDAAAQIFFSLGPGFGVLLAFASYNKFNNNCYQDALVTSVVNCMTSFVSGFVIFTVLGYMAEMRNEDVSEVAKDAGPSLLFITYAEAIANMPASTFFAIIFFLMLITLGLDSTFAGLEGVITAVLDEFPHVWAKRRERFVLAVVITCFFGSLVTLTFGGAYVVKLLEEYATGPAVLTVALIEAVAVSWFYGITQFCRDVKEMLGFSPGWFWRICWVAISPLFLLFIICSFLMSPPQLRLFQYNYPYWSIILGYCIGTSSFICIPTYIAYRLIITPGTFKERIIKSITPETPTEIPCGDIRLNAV

For orientation: AC50 means the concentration at which the activity in the assay is half-maximal. Consider `O=C(O)c1ccc2nc(-c3cc(Cl)cc(Cl)c3)oc2c1`, for which the AC50 was greater than 30 µM on Histamine H1 receptor; greater than 30 µM on Histamine H2 receptor; greater than 30 µM in assay [1]; greater than 30 µM at Glucocorticoid receptor; 30 µM in assay [2]; greater than 30 µM at Progesterone receptor. For the same molecule, the half-maximal activity concentration (AC50) at Thromboxane A2 receptor was greater than 30 µM; in assay [3] it was greater than 30 µM; in [4] it was greater than 30 µM; in assay [5] it was greater than 30 µM; at D(3) dopamine receptor, greater than 1 µM; at Histamine H3 receptor, greater than 30 µM.

For the molecule `NS(=O)(=O)c1ccc(N2CCCCS2(=O)=O)cc1`, the concentration at half-maximal activity (AC50) (at Histamine H1 receptor; on Histamine H2 receptor; in assay [1]; at Glucocorticoid receptor; in assay [2]; at Progesterone receptor) was greater than 30 µM in each case. Moreover, the AC50 (on Thromboxane A2 receptor; in [3]; in assay [4]; in assay [5]; on D(3) dopamine receptor; at Histamine H3 receptor) was greater than 30 µM throughout.

On to `OCC(O)COc1ccc(Cl)cc1` (stereo not given), for which the concentration at half-maximal activity (AC50) at Histamine H1 receptor was greater than 10 µM; on Histamine H2 receptor, greater than 10 µM; in assay [1] it was greater than 30 µM; at Glucocorticoid receptor it was greater than 10 µM; in assay [2], greater than 30 µM; at Progesterone receptor, greater than 10 µM. The AC50 was greater than 10 µM on Thromboxane A2 receptor; greater than 10 µM in assay [3]; greater than 10 µM in assay [4]; greater than 10 µM in [5]; greater than 30 µM at D(3) dopamine receptor; greater than 10 µM on Histamine H3 receptor.

Turning to `C[C@H](N)C(=O)N[C@@H](CCC(N)=O)C(=O)O` [ALANYL GLUTAMINE] (H-Ala-Gln-OH), the AC50 (at Histamine H1 receptor; on Histamine H2 receptor; in assay [1]; at Glucocorticoid receptor; in assay [2]; on Progesterone receptor) was greater than 30 µM each time. Moreover, the AC50 (on Thromboxane A2 receptor; in [3]; in assay [4]; in assay [5]; at D(3) dopamine receptor; at Histamine H3 receptor) was greater than 30 µM each time.

Take `CCN(CC)CCCN(c1ccccc1)C1Cc2ccccc2C1` [APRINDINE]: the half-maximal activity concentration (AC50) is 1.18 µM on Histamine H1 receptor; greater than 30 µM at Histamine H2 receptor; 8.5 µM in assay [1]; greater than 30 µM on Glucocorticoid receptor; greater than 30 µM in assay [2]; greater than 30 µM on Progesterone receptor. In addition, the AC50 at Thromboxane A2 receptor is greater than 10 µM; in [3], 11.6 µM; in assay [4], 2.3 µM; in assay [5], 3.3 µM; at D(3) dopamine receptor it was 3.15 µM; on Histamine H3 receptor, 18 µM.

For the molecule `C[C@@H](Cc1ccccc1)N(C)Cc1ccccc1` [BENZPHETAMINE], the concentration at half-maximal activity (AC50) was greater than 10 µM at Histamine H1 receptor; greater than 10 µM at Histamine H2 receptor; greater than 30 µM in [1]; greater than 10 µM at Glucocorticoid receptor; greater than 30 µM in assay [2]; greater than 10 µM on Progesterone receptor. In addition, the AC50 on Thromboxane A2 receptor is greater than 10 µM; in [3], 9.9 µM; in [4], 0.036 µM; in assay [5] it was 0.075 µM; on D(3) dopamine receptor, greater than 30 µM; on Histamine H3 receptor, greater than 10 µM.

Regarding `CO/N=C(\C(=O)N[C@@H]1C(=O)N2C(C(=O)O)=C(CSc3nc(C)c(CC(=O)O)s3)CS[C@H]12)c1csc(N)n1` [CEFODIZIME], the AC50 (on Histamine H1 receptor; on Histamine H2 receptor; in [1]; on Glucocorticoid receptor; in assay [2]; at Progesterone receptor) was greater than 30 µM each time. Moreover, the AC50 (at Thromboxane A2 receptor; in [3]; in [4]; in [5]; at D(3) dopamine receptor; on Histamine H3 receptor) was greater than 30 µM each time.

Regarding `CO/N=C(\C(=O)N[C@@H]1C(=O)N2C(C(=O)[O-])=C(C[n+]3ccc(N)n3CCO)CS[C@H]12)c1csc(N)n1` [CEFOSELIS], the concentration at half-maximal activity (AC50) (on Histamine H1 receptor; on Histamine H2 receptor; in assay [1]; at Glucocorticoid receptor; in assay [2]; on Progesterone receptor) was greater than 30 µM each time. For the same molecule, the AC50 (on Thromboxane A2 receptor; in [3]; in assay [4]; in [5]; on D(3) dopamine receptor; on Histamine H3 receptor) was greater than 30 µM each time.

For `COc1ccc(C(Cl)=C(c2ccc(OC)cc2)c2ccc(OC)cc2)cc1` [CHLOROTRIANISENE], the half-maximal activity concentration (AC50) (on Histamine H1 receptor; on Histamine H2 receptor; in assay [1]; on Glucocorticoid receptor; in assay [2]; at Progesterone receptor) was greater than 30 µM each time. In addition, the half-maximal activity concentration (AC50) on Thromboxane A2 receptor is greater than 10 µM; in assay [3], greater than 30 µM; in assay [4], greater than 30 µM; in assay [5], greater than 30 µM; on D(3) dopamine receptor, greater than 30 µM; at Histamine H3 receptor, greater than 30 µM.

`CCCO[C@H]1[C@@H]([C@@H](COCc2ccc(Cl)cc2)OCc2ccc(Cl)cc2)OC(OCC)[C@@H]1O` (stereo not given in full) [CLOBENOSIDE]: the AC50 (on Histamine H1 receptor; at Histamine H2 receptor; in assay [1]; on Glucocorticoid receptor; in [2]; at Progesterone receptor) was greater than 30 µM throughout. Moreover, the concentration at half-maximal activity (AC50) (at Thromboxane A2 receptor; in assay [3]; in [4]; in [5]; on D(3) dopamine receptor; at Histamine H3 receptor) was greater than 30 µM each time.
